Like-named read-outs stand apart in the source and are kept apart here.
Legend:
[1] = test system: pigweed (Amaranthus retroflexus, AMARE); test: Postemergence herbicidal activity, greenhouse trial (visual injury 0-100%); type: in vivo; details: Amaranthus retroflexus, post-emergence, read-out: % visual injury Obs
In short: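 Greenhouse plants at the 2nd–3rd true-leaf stage (14 h photoperiod, ~23/22 °C) were track-sprayed at 187 L/ha with acetone/DMSO stocks diluted in 1.5% v/v crop oil concentrate. Rates were g ae/ha for component (a) and g ai/ha for (b). Injury versus solvent-blank controls was rated visually at 20–22 d, with Colby's equation giving expected mixture effects.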

[2] = test system: poinsettia (Euphorbia heterophylla, EPHHL); test: as above; type: in vivo; details: for % visual injury Obs: EPHHL
In short: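 Greenhouse-grown plants at the second to third true leaf stage were sprayed with two-way mixtures in 1.5% v/v Agri-dex crop oil concentrate at 187 L/ha; rates in g ae/ha for component (a) and g ai/ha for component (b). Injury scored visually 0–100% versus solvent-blank controls after 20–22 d, with expected mixture effects from Colby's equation.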

[3] = test system: spring rape (Brassica napus, BRSNN); test: as above; type: in vivo
[4] = test system: soybean (Glycine max, GLXMA); test: as above; type: in vivo
Procedure: (§1) Seeds of the desired test plant species were planted in Sun Gro MetroMix® 306 planting mixture, which typically has a pH of 6.0 to 6.8 and an organic matter content of about 30 percent, in plastic pots with a surface area of 103.2 square centimeters (cm^2). […] The plants were grown for 7-36 days (d) in a greenhouse with an approximate 14-hour (h) photoperiod which was maintained at about 23° C. during the day and 22° C. during the night. Nutrients and water were added on a regular basis and supplemental lighting was provided with overhead metal halide 1000-Watt lamps as necessary. The plants were employed for testing when they reached the second or third true leaf stage.
(§2) Weighed amounts of technical material were dissolved in a volume of 97:3 volume per volume (v/v) acetone/dimethyl sulfoxide (DMSO) to stock solutions. […] The concentrated stock solutions were diluted with an aqueous mixture of 1.5% v/v of Agri-dex crop oil concentrate to provide the appropriate application rates. Compound requirements are based upon a 12 milliliter (mL) application volume at a rate of 187 liters per hectare (L/ha). Spray solutions of the experimental compound mixtures were prepared by adding the stock solutions to the appropriate amount of dilution solution to form a 12 mL spray solution in two-way combinations. Formulated compounds were applied to the plant material with an overhead Mandel track sprayer equipped with 8002E nozzles calibrated to deliver 187 L/ha over an application area of 0.503 square meters (m^2) at a spray height of 18 inches (43 centimeters (cm)) above average plant canopy. Control plants were sprayed in the same manner with the solvent blank. Application rates for component (a) are in g ae/ha, and application rates for component (b) are in g ai/ha.
(§3) The treated plants and control plants were placed in a greenhouse as described above and watered by sub-irrigation to prevent wash-off of the test compounds. After 20-22 d, the condition of the test plants as compared with that of the control plants was determined visually and scored on a scale of 0 to 100 percent where 0 corresponds to no injury and 100 corresponds to complete kill. The condition of the test plants was compared with that of the control plants as determined visually and scored on a scale of 0 to 100 percent, where 0 corresponds to no injury and 100 corresponds to complete kill. Colby's equation was used to determine the herbicidal effects expected from the mixtures.
Compound 1 was formulated as an EC and was combined with imazamox, imazamethabenz, imazapic, imazapyr or imazethapyr. The mixtures were applied to winter wheat (TRZAW) and/or maize (ZEAMX), and the phytotoxicity of the herbicidal compositions was measured. In addition, the efficacy of the herbicidal compositions on blackgrass (Alopecurus myosuroides, ALOMY), wild oat (Avena fatua, AVEFA), winter rape (Brassica napus, BRSNW), spring rape (Brassica napus, BRSNN), turnip (Brassica rapa, BRSRR), thistle (Cirsium arvense, CIRAR), large crabgrass (Digitaria sanguinalis, DIGSA), pigweed (Amaranthus retrollexus, AMARE), common lambsquarters (Chenopodium album L., CHEAL), poinsettia (Euphorbia heterophylla, EPHHL), ivyleaf morning-glory (Ipomoea hederacea, IPOHE), kochia (Kochia scoparia, KCHSC), wild buckwheat (Polygonum convolvulus, POLCO), grain sorghum (Sorghum vulgare, SORVU), chickweed (Stellaria media, STEME), wild pansy (Viola tricolor, VIOTR), sunflower (Helianthus annuus, HELAN), giant foxtail (Setaria faberi, SETFA), soybean (Glycine max, GLXMA), rutabaga (Brassica napus var. napobrassica, BRSNA) and barnyardgrass (Echinochloa crus-galli, ECHCG) was evaluated.

[5] = test system: giant foxtail (Setaria faberi, SETFA); test: as above; type: in vivo
[6] = test system: brown mustard (Brassica juncea, BRSJU); test: as above; type: in vivo; details: Compound 1 5 g ae/ha
[7] = test system: winter wheat (Triticum aestivum, TRZAW); test: Postemergence crop injury (phytotoxicity), greenhouse trial (visual injury 0-100%); details: 7.5 g ai/ha
Procedure: as §1, §2, §3
Compound 2 was combined with florasulam and applied to winter wheat (TRZAW) and the phytotoxicity of the herbicidal composition was measured. In addition, the efficacy of the herbicidal composition on poinsettia (Euphorbia heterophylla, EPHHL) and […] (Cyperus esculentus, CYPES) was evaluated.
Weighed amounts of technical or formulated material (emulsifiable concentrate (EC) or soluble concentrate (SL)) were dissolved in a volume of 97:3 volume per volume (v/v) acetone/dimethyl sulfoxide (DMSO) to stock solutions. […] The concentrated stock solutions were diluted with an aqueous mixture of 1.5% v/v of Agri-dex crop oil concentrate to provide the appropriate application rates. Compound requirements are based upon a 12 milliliter (mL) application volume at a rate of 187 liters per hectare (L/ha). Spray solutions of the experimental compound mixtures were prepared by adding the stock solutions to the appropriate amount of dilution solution to form a 12 mL spray solution in two-way combinations. […]

Nc1c(F)c(-c2ccc3cc[nH]c3c2F)nc(C(=O)O)c1Cl [Compound 1]
pest or weed control at 5 g/ha ([1]; 5 g ae/ha): 95% | pest or weed control at 10 g/ha ([1]; 10 g ae/ha): 97% | pest or weed control at 5 g/ha ([1]; AMARE, Compound 1 5 g ae/ha): 75% | pest or weed control at 10 g/ha ([1]; AMARE, Compound 1 10 g ae/ha): 97% | % visual injury Obs ([2]; Compound 1 5 g ae/ha): 97% | % visual injury Obs ([2]; Compound 1 10 g ae/ha): 97% | pest or weed control at 5 g/ha ([2]; Euphorbia heterophylla, post-emergence, 5 g ae/ha, read-out: % visual injury Obs): 97% | pest or weed control at 10 g/ha ([2]; Euphorbia heterophylla, post-emergence, 10 g ae/ha, read-out: % visual injury Obs): 97% | % visual injury Obs ([3]; 5 g ae/ha): 50% | % visual injury Obs ([3]; BRSNN, Compound 1 5 g ae/ha): 70% | % visual injury Obs ([4]; 5 g ae/ha): 95% | % visual injury Obs ([4]; 10 g ae/ha): 100% | % visual injury Obs ([5]; 5 g ae/ha): 10% | % visual injury Obs ([5]; 10 g ae/ha): 50% | % visual injury Obs ([5]; SETFA, Compound 1 5 g ae/ha): 10% | % visual injury Obs ([5]; SETFA, Compound 1 10 g ae/ha): 50% | % visual injury Obs [6]: 60%

CCCOc1nn(C(=O)NS(=O)(=O)c2ccccc2C(=O)OC)c(=O)n1C [Propoxycarbazone, propoxycarbazone]
% visual injury Obs [7]: 10%

Reference: US20190364896A1, “SYNERGISTIC WEED CONTROL FROM APPLICATIONS OF PYRIDINE CARBOXYLIC ACID HERBICIDES AND ALS INHIBITORS” (Dow AgroSciences LLC, priority 2014, published 2019)
